Assay [1] has as its target T1, 5-HT1A receptor (Homo sapiens, UniProt P08908).
T1 sequence (P08908 1-422): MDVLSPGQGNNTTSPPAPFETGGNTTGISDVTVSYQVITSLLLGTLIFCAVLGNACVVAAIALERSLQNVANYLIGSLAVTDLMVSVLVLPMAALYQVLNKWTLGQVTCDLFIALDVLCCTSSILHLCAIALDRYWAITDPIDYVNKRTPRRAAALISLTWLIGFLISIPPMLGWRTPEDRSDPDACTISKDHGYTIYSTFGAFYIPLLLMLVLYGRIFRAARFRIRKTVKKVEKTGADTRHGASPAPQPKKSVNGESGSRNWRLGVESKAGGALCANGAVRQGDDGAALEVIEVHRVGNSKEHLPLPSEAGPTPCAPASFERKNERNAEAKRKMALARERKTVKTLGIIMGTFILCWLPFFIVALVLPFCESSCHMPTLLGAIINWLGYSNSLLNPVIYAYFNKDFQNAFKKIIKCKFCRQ
The note with it: for voltage dependence of potency: −80 mV versus +40 mV.

For assay [2], the target named is T1, 5-HT1A receptor. The assay can be described thus: cell-based. More on the design: Emax: dose or concentration left out as unconfirmed. The note with it: for EC50: EC50 (activation of receptor-mediated GIRK current), wt receptor, 72 mM Na+ solution.

The values below come from PMC9136116, “The activity of the serotonergic 5-HT1A receptor is modulated by voltage and sodium levels” (The Journal of Biological Chemistry, 2022).

Where two headings read alike, the source gives them in different places.

What is called EC50 is the concentration needed to bring the measured effect to its halfway point.

As to `NCCc1c[nH]c2ccc(O)cc12` [5-HT, 5-hydroxytryptamine], the “effect of removal of extracellular Na+ on maximal I5-HT” value at 5-HT1A receptor [1] (5 μM 5-HT, Na+-free versus 72 mM Na+) is reported as “did not affect the maximal current”. In addition, the “decrease of potency by depolarization” value at 5-HT1A receptor [1] (+40 mV versus −80 mV, 72 mM Na+) is recorded as “more than 20 fold”.
Consider `O=C1CC2(CCCC2)CC(=O)N1CCCCN1CCN(c2ncccn2)CC1` [buspirone], for which the Emax at 5-HT1A receptor [2] (read-out: maximal response relative to the maximal response produced by 5-HT) was around 42%. Moreover, the “voltage dependence of potency” value at 5-HT1A receptor [1] is “not voltage dependent”.
On to `O=C1[C@@H]2[C@H]3CC[C@H](C3)[C@@H]2C(=O)N1CCCCN1CCN(c2ncccn2)CC1` [tandospirone], for which the EC50 on 5-HT1A receptor [2] (holding potential +40 mV) is 938 nM; on 5-HT1A receptor [2] (holding potential −80 mV), 194 nM. Moreover, on 5-HT1A receptor [2] (read-out: maximal response relative to the maximal response evoked by 5-HT at the same oocytes), the Emax was around 55%. Moreover, the “voltage dependence of potency” value at 5-HT1A receptor [1] is recorded as “voltage-dependent”.
